{"source": "patent US9173864B2", "about": "“Treatment and/or prevention of inner ear conditions by modulation of a metabotropic glutamate receptor” (House Ear Institute, priority 2008, dated 2015)", "test_system": "patients with symptoms of presbycusis", "assay": "Administration of FTIDC to patients with presbycusis (Example 5)", "type": "in vivo, human", "conditions": "person; for hearing threshold, left ear / hearing threshold, right ear: after 14 days", "protocol": "A person presents with symptoms of presbycusis, including moderate loss of higher frequency (above 2000 Hz) hearing (50 decibel threshold) in both ears. The person is administered two drops per ear twice daily of a topical otic formulation comprising 10 ug/ml of FTIDC in a phosphate-buffered saline and further comprising 0.25% the carboxyvinyl water swellable gelling agent, Carbopol 934P; i.e., about […] of FTIDC per ear per dosing. After 14 days, the patient is tested by an audiologist. The threshold is lowered to 35 decibels right ear and 40 decibels left ear.\nA person presents with symptoms of presbycusis, including loss of moderately high frequency (above 1000 Hz) hearing (40 decibel threshold right ear and 35 decibel threshold left ear). The person is administered an oral formulation 4 times per day comprising 2 ug per dose of FTIDC. The extended release capsule comprises a matrix of 10% by weight hydroxypropyl methylcellulose (e.g., Methocel®; Dow Chemical Company, U.S.A), and 50% by weight of a cornstarch filler. After 14 days, the threshold is lowered to 35 decibels right ear and 25 decibels left ear.\nA person presents with symptoms of presbycusis, including loss of hearing in the 500 to above 2000 Hz range. The person is implanted with an Alset® osmotic pump adapted for cochlear delivery; see e.g., Richardson, R. T., Noushi, F., O'Leary, S. Inner ear therapy for neural preservation. AUDIOLOGY AND NEURO-OTOLOGY 2006; 11(6): 343-356. The pump is supplied with an aqueous sterile solution comprising FTIDC. The pump delivers a dose of 10 ug/hour of the modulator.", "key": {"[1]": {"conditions": "higher frequency (above 2000 Hz) loss, 50 decibel threshold before, topical otic drops 10 ug/ml twice daily"}}, "data": [{"molecule": "Cc1c(C2=CCN(C(=O)N(C)C(C)C)CC2)nnn1-c1cccnc1F", "note": "[FTIDC, 4-[1-(2-fluoropyridin-3-yl)-5-methyl-1H-1,2,3-triazol-4-yl]-N-isopropyl-N-methyl-3,6-dihydropyridine-1(2H)-carboxamide]", "values": [{"measurement": "hearing threshold, left ear", "setting": "above 1000 Hz loss, 35 decibel threshold before, oral extended release capsule 2 ug per dose 4 times per day", "result": 25, "unit": "decibels"}, {"measurement": "hearing threshold, right ear", "setting": "above 1000 Hz loss, 40 decibel threshold before, oral extended release capsule 2 ug per dose 4 times per day", "result": 35, "unit": "decibels"}, {"measurement": "hearing threshold, left ear", "setting": "[1]", "result": 40, "unit": "decibels"}, {"measurement": "hearing threshold, right ear", "setting": "[1]", "result": 35, "unit": "decibels"}, {"measurement": "hearing", "setting": "loss in 500 to above 2000 Hz range, osmotic pump cochlear delivery 10 ug/hour, after 10 days", "result": "hearing is improved in both ears"}]}]}
